Reference: publication PMC12186843, “Targeting GABAergic Hypofunction Associated with Schizophrenia: Identification of α1β2γ2GABA‑A Receptor Ligands with Neuroprotective and Antipsychotic Properties” (ACS Chemical Neuroscience, 2025)

Assays:
[1] = Metabolic stability in human liver microsomes; type: in vitro ADME
Description: In Eppendorf tubes, potassium phosphate buffer (pH 7.4), a working solution of the test compound, and human liver microsomes (final concentration: 0.4 mg/mL, Sigma-Aldrich) were combined. The mixture was incubated at 37 °C with shaking for 15 min in a thermoblock. Following this, an NADPH regeneration system (Sigma-Aldrich) was added to the mixture, which was subsequently incubated with shaking at 37 °C for various time intervals (5, 15, 30, 60, 90, 120, 150, 180, 210, and 240 min). A control experiment was run in parallel, replacing the regeneration fraction with phosphate buffer. At the designated incubation times, an internal standard (levallorphan, Sigma-Aldrich) was added to each sample. To terminate the reaction, 70% perchloric acid (Sigma-Aldrich) was added, and the samples were centrifuged at 6000 rpm for 10 min at 4 °C. The resulting supernatants were collected and subjected to LC-MS/MS analysis. Each sample was analyzed in duplicate.

SH-SY5Y cells [2] = assay: ROS generation after hydrogen peroxide (CellROX); type: cell-based, human; conditions: 50 μM pretreatment 1 h, then H2O2 300 μM 1 h
Description: (§1) 7 (A). Effect of 6-Hydroxydopamine (6-OHDA) on intracellular calcium concentration [Ca^2+] determined by Fluo-4 AM. After pretreatment with tested compounds (50 μM) or vehicle (0.5% DMSO, v/v) for 1 h, the cells were incubated with 6-Hydroxydopamine (6-OHDA, 250 μM) for 1 h. 6-OHDA control: cells treated with 250 μM of 6-OHDA. […]. DMSO control: cells treated with 0.5% DMSO only. Data are presented as the mean ± SD from 2–3 independent experiments. Experiments were carried on with ImageXpress Micro XLS (Molecular Devices). (B) The level of ROS generation was determined by Cell ROX dye. After pretreatment with tested compounds (50 μM) or vehicle (0.5% DMSO, v/v) for 1 h, the cells were incubated with hydrogen peroxide (H2O2, 300 μM) for 1 h. H2O2 control: cells treated with H2O2 (300 μM). DMSO control: cells treated with 0.5% DMSO only. Data are presented as the mean ± SD from 2–3 independent experiments. Experiments were carried on with the ImageXpress Micro XLS (Molecular Devices).
The SH-SY5Y human neuroblastoma cell line was maintained according to established protocols. […]
Cellular reactive oxygen species (ROS) levels were determined using the CellROX Deep Red Reagent (Thermo Fisher). […] The results were expressed as a percentage relative to the control (DMSO). Fluorescence intensity was measured using the ImageXpress Micro XLS system (Molecular Devices).

SH-SY5Y cells [3] = assay: PrestoBlue cell viability assay; type: cell-based; conditions: Table S2, 24 h
Description: Cell viability was determined using the Presto Blue reagent (ThermoFisher) following the manufacturer’s instructions.
(§2) 1. Cytotoxicity studies for selected compounds
Table S1. The viability of the cells SH-SY5Y after treatment with tested compounds for 24 the results are expressed as a percentage of dead cells with luminescence ToxiLight Assay. The results are expressed as a per cent of control with whole […]
percentage of live cells with fluorescence PrestoBlue Assay. The results are expressed as a per cent of vehicle (DMSO).

[4] = Metabolic stability in rat liver microsomes; type: in vitro ADME
α1β2γ2 GABA-A receptor = target: T1, α1β2γ2 GABA-A receptor (Homo sapiens, UniProt P14867+P18507); assay: Electrophysiological studies (QPatch16X automated patch-clamp), PAM efficacy; type: cell-based
T1 construct: expressed in transfected cells

SH-SY5Y cells [5] = assay: ToxiLight assay (cell membrane damage); type: cell-based; conditions: Table S1, 24 h
Description: Damage to the cell membrane was assessed using the bioluminescent ToxiLight bioassay (Lonza), a profound method for detecting cell toxicity. Following 24 h of treatment, 5 μL of the supernatant above the sediment was transferred to a 384-well plate (PerkinElmer). Subsequently, 20 μL of Adenylate Kinase Detection Reagent (AKDR) was added to each well. Luminescence was recorded after a 10 min incubation period using a POLARstar Omega plate reader (BMG Labtech). Results are presented as a percentage relative to the control sample (cells lysed), reflecting the proportion of dead cells compared to the control.
as §2
Table S1. The viability of the cells SH-SY5Y after treatment with tested compounds for 24 the results are expressed as a percentage of dead cells with luminescence ToxiLight Assay. The results are expressed as a per cent of control with whole lysis cells. N.C. not countable […]
Table S2. The viability of the cells SH-SY5Y after treatment with tested compounds for 24 h the results are expressed as a percentage of live cells with fluorescence PrestoBlue Assay. The results are expressed as a per cent of vehicle (DMSO). […]

[6] = Metabolic stability in mouse liver microsomes; type: in vitro ADME
SH-SY5Y cells [7] = assay: Intracellular calcium concentration after 6-OHDA (Fluo-4); type: cell-based, human; conditions: 50 μM pretreatment 1 h, then 6-OHDA 250 μM 1 h
Description: as §1
The SH-SY5Y human neuroblastoma cell line was maintained according to established protocols. The cells, obtained from the American Type Culture Collection (ATCC), were cultured in Dulbecco’s Modified Eagle’s Medium (DMEM, high glucose; Thermo Fisher), supplemented with 10% fetal bovine serum (Thermo Fisher), 100 IU/ml penicillin (Merck), and 100 μg/mL streptomycin (Merck). They were grown in 75 cm^2 flasks (Nunc) at 37 °C in a humidified atmosphere containing 5% CO2. For compound evaluation, SH-SY5Y cells were plated in 96-well plates (Falcon) at a density of 2 × 10^4 cells per well. The cells were allowed to adhere and grow for 24 h in an incubator set to 37 °C and 5% CO2 before starting the experiments. Stock solutions of both test and reference compounds were prepared at a concentration of 10^–2 M. A minimum of 1 mg of each compound was dissolved in dimethyl sulfoxide (DMSO). Serial dilutions were made in DMSO, then further diluted in PBS, mixed, and added to the cell culture medium.
The intracellular Ca^2+ levels were assessed using a homogeneous cell-based assay with the Fluo-4 Direct Calcium Assay Kit (Thermo Fisher). Following incubation with the tested compounds, the supernatant was discarded, and the cells were incubated with 1 μM Fluo-4/AM in FluoroBrite DMEM (Thermo Fisher) for 1 h at 37 °C. The results were expressed as a percentage relative to the control (DMSO). Fluorescence intensity was recorded using the ImageXpress Micro XLS system (Molecular Devices).

[8] = test system: P-glycoprotein (P-gp, MDR1); assay: A–B and B–A permeability assay in MDR1-MDCKII cell line; conditions: dog
Description: (§3) The A–B and B–A permeability assay using the MDR1-MDCKII cell line was conducted at Eurofins Discovery according to a well-established protocol.

MDR1-MDCKII cell line = assay: as above; conditions: MDCK-MDR1 permeability assay
Description: as §3

T1 sequence (P14867 28-456): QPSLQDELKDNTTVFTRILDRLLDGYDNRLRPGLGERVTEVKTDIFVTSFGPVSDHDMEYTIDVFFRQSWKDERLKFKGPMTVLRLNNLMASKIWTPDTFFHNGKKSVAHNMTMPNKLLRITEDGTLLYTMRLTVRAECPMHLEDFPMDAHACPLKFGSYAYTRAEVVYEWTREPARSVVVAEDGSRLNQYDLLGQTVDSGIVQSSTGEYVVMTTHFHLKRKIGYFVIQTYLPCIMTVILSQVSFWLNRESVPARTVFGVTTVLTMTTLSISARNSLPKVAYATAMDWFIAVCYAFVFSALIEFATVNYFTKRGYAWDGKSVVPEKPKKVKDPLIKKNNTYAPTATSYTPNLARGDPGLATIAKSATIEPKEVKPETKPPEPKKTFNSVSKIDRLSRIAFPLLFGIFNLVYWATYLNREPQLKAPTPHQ
T1 sequence (P47870 25-512 partner limits assumed): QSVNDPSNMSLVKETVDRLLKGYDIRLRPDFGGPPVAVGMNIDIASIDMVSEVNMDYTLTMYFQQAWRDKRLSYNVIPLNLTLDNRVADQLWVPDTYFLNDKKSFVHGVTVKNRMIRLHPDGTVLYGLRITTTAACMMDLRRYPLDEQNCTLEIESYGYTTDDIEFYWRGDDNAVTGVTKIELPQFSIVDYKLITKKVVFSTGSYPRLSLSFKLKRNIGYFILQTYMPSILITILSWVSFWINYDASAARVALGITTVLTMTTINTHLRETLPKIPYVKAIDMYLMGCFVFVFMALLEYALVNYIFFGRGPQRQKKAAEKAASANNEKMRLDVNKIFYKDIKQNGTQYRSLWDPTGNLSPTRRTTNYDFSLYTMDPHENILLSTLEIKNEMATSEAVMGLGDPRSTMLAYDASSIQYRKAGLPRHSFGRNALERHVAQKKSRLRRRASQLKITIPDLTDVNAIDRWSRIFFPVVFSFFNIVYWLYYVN
T1 sequence (P18507 40-475): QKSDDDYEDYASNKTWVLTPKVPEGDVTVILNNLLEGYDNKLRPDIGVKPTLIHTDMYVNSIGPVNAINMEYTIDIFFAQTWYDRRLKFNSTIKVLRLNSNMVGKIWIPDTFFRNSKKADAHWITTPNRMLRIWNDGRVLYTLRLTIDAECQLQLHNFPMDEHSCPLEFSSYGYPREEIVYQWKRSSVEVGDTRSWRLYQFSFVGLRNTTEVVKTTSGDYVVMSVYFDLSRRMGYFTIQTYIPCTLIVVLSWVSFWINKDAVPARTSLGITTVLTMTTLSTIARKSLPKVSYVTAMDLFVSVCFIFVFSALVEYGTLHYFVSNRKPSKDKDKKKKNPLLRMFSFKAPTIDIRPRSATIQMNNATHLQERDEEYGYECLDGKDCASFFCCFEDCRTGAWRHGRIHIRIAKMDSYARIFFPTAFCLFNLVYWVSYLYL

Cc1ccc2nc(-c3ccc(F)cc3)c(CC(=O)N3CC(C)NC(C)C3)n2c1 (stereo not shown) [Compound 6, 1-(3,5-Dimethylpiperazin-1-yl)-2-[2-(4-fluorophenyl)-6-methylimidazo[1,2-a]pyridin-3-yl]ethan-1-one]
t0,5 HLMs [1]: >60 min | remaining at 0.25 h ([1]; human, liver microsomes, pH 7.4, after 15 min of biotransformation, read-out: % remaining of the parent compound HLMs): 74% | microsomal CLint ([1]; human, liver microsomes, pH 7.4, read-out: Clint HLMs): < 40 µL/min/mg | Decrease of ROS levels (SH-SY5Y cells [2]): 32% | X [%], percentage of live cells, PrestoBlue Assay (per cent of vehicle DMSO) (SH-SY5Y cells [3]; 1E-05 M): 17% | X [%], percentage of live cells, PrestoBlue Assay (per cent of vehicle DMSO) (SH-SY5Y cells [3]; 1E-06 M): 16% | X [%], percentage of live cells, PrestoBlue Assay (per cent of vehicle DMSO) (SH-SY5Y cells [3]; 1E-07 M): 17% | X [%], percentage of live cells, PrestoBlue Assay (per cent of vehicle DMSO) (SH-SY5Y cells [3]; 1E-08 M): 18% | X [%], percentage of live cells, PrestoBlue Assay (per cent of vehicle DMSO) (SH-SY5Y cells [3]; 1E-09 M): 17% | X [%], percentage of live cells, PrestoBlue Assay (per cent of vehicle DMSO) (SH-SY5Y cells [3]; 3E-05 M): 17% | X [%], percentage of live cells, PrestoBlue Assay (per cent of vehicle DMSO) (SH-SY5Y cells [3]; 3E-06 M): 16% | t0,5 RLMs [4]: 44 min | remaining at 0.25 h ([4]; rat, liver microsomes, pH 7.4, after 15 min of biotransformation, read-out: % remaining of the parent compound RLMs): 70% | microsomal CLint ([4]; rat, liver microsomes, pH 7.4, read-out: Clint RLMs): < 40 µL/min/mg | EC50 (α1β2γ2 GABA-A receptor): 0.872 ± 0.077 µM | X [%], percentage of dead cells, ToxiLight Assay (per cent of control with whole lysis cells) (SH-SY5Y cells [5]; 1E-04 M): 74% | X [%], percentage of dead cells, ToxiLight Assay (per cent of control with whole lysis cells) (SH-SY5Y cells [5]; 1E-05 M): 93% | X [%], percentage of dead cells, ToxiLight Assay (per cent of control with whole lysis cells) (SH-SY5Y cells [5]; 1E-06 M): 109% | X [%], percentage of dead cells, ToxiLight Assay (per cent of control with whole lysis cells) (SH-SY5Y cells [5]; 1E-07 M): 97% | X [%], percentage of dead cells, ToxiLight Assay (per cent of control with whole lysis cells) (SH-SY5Y cells [5]; 1E-08 M): 108% | X [%], percentage of dead cells, ToxiLight Assay (per cent of control with whole lysis cells) (SH-SY5Y cells [5]; 1E-09 M): 101% | X [%], percentage of dead cells, ToxiLight Assay (per cent of control with whole lysis cells) (SH-SY5Y cells [5]; 3E-05 M): 87% | X [%], percentage of dead cells, ToxiLight Assay (per cent of control with whole lysis cells) (SH-SY5Y cells [5]; 3E-06 M): 105% | t0,5 MLMs [6]: 58 min | remaining at 0.25 h ([6]; mouse, liver microsomes, pH 7.4, after 15 min of biotransformation, read-out: % remaining of the parent compound MLMs): 68% | microsomal CLint ([6]; mouse, liver microsomes, pH 7.4, read-out: Clint MLMs): < 40 µL/min/mg | Reduction of intracellular calcium levels (SH-SY5Y cells [7]): 28% | Papp A→B at 10 μM ([8]; MDCK-MDR1, pH 7.4): 14.5 ×10⁻⁶ cm/s | Papp B→A at 10 μM ([8]; MDCK-MDR1, pH 7.4): 24.6 ×10⁻⁶ cm/s | efflux ratio at 10 μM ([8]; MDCK-MDR1, pH 7.4, Efflux ratio (Paap B–A/A–B), pH 7.4/7.4, 6 and 17 at 10 μM): 1.68 | Substrate for P-glycoprotein (P-gp) efflux (MDR1-MDCKII cell line): possible substrate
